Assay results: patent publication US20070225278A1, “Methods for treating cognitive and other disorders” (priority 2006, published 2007)

Key:
[1] = test system: male Sprague-Dawley rats; format: in vivo, rat; details: for Sexual dysfunction (MED mg/kg): male, Sprague-Dawley, rat, in vivo, 30 min; for reduction of the number of penile erections relative to vehicle treated animals: sexually experienced male rats, female stimuli present, i.p. once daily
Source text: In summary, male rats were allowed access to sexually receptive females during a single overnight mating session and then administered antidepressants with varying degrees of clinically reported sexual deficits. […] Animals
Intact male Sprague-Dawley rats (Charles River Laboratories) arrived at 7 weeks of age and were allowed to habituate for one week prior to sexual experience or behavioral testing. Rats were group housed in same-sex colony rooms with food and water provided ad libitum. All animals were maintained under a 12:12 light-dark cycle (lights on at 6:00 am) with behavioral experiments performed during the light hours beginning at noon.
Ovariectomized female Long-Evans rats (Charles River Laboratories) were individually housed and brought into behavioral estrus weekly by subcutaneous injection of 25 ug 17-B estradiol benzoate in 0.1 ml corn oil 48 hours prior to testing, followed by subcutaneous administration of 2.5 mg progesterone in 0.1 ml corn oil 4 to 6 hours before testing.
For subjects assigned into the sexually experienced group, the following procedures were performed. Individual male rats were placed into the home cage of a a sexually receptive female for overnight mating sessions. The cage was a Plexiglas cage measuring 10×12 inches, with food and water ad libitum. Mating pairs were randomly assigned. […] Following overnight mating sessions, males and females were separated from each other and placed back into same-sex colony rooms where they were group-housed until the time of behavioral testing.
To determine the effects of female stimuli on non-contact penile erections, sexually receptive females were brought into the testing room 30 minutes prior to the start of behavioral testing in order to provide female visual, olfactory, and auditory stimuli for males. The testing arena for observing non-contact penile erections in male rats consisted of an empty rat size Plexiglas cage (11×10 inches) containing no bedding, with an aerated plastic lid and a total ceiling height of 12 inches. […] A penile erection consisted of observation of the male rat in a hunched position grasping the penis with the forepaws and followed by a series of pelvic thrusts. The number of penile erections were quantified over a 30 minute observation session.
Following sexual experience (as described above), male subjects (n=8 per group) were administered either 10 mg/kg/day fluoxetine or saline vehicle for 14 days. On the 14th day, fluoxetine treatment was co-administered with either saline or apomorphine (0.1-0.3 mg/kg, sc) or yohimbine (0.1-0.3 mg/kg, sc) or sildenafil (0.1-0.3 mg/kg, sc) in separate experiments. Non-contact penile erections were evaluated in 30 minute test sessions in the presence of sexually receptive female rats.
Fluoxetine HCl (Tocris), desipramine (Sigma, St. Louis, Mo.) and bupropion HCl (Toronto Research Chemicals, Canada) were dissolved in 0.9% sterile saline vehicle and injected intraperitoneally (i.p.) once daily. On the day of behavioral testing, antidepressants were administered intraperitoneally (i.p.) as one hour pretreatments. For reversal experiments, apomorphine (Sigma, St. Louis, Mo.), yohimbine (Sigma, St. Louis, Mo.) or sildenafil (Toronto Research Chemicals, Canada) were used. Apomorphine was dissolved in 0.9% sterile saline vehicle and injected subcutaneously (s.c.). Yohimbine was dissolved in dH2O facilitated with 1N HCl, followed by addition of 1N NaOH for titration (pH=7) and administered intraperitoneally (i.p.). Sildenafil was dissolved in 0.9% sterile saline vehicle and administered intraperitoneally (i.p.). With the exception of fluoxetine which was administered in a dose volume of 2 ml/kg, all other test compounds were administered in a dose volume of 1 ml/kg. On the day of behavioral testing, both fluoxetine and the reversal agent (apomorphine, yohimbine, or sildenafil) were co-administered as 0 minute pretreatments. […]

[2] = Antidepressant-like effects (MED), Table 2; format: in vivo; details: minimal effective dose
Source text: Table 2, below, summarizes the dose at which antidepressant-like effects are observed, the dose at which sexual dysfunction occurs, and the therapeutic window.

[3] = test system: male Sprague Dawley CD rats; assay: Reversal of MK-801 induced deficits in PPI; details: data generated within the applicant's lab, doses not given

Sexual dysfunction (MED mg/kg) [1]	SMILES	reduction of the number of penile erections relative to vehicle treated animals [1]	Antidepressant-like effects (MED mg/kg) [2]	attenuation of MK-801 induced deficit in PPI (reference antipsychotics) [3]
>20 mg/kg	CC(NC(C)(C)C)C(=O)c1cccc(Cl)c1 (stereo not shown) [Bupropion, bupropion]	9%	20 mg/kg	
10 mg/kg	CNCCCN1c2ccccc2CCc2ccccc21 [Desipramine, desipramine]	43%	10 mg/kg	
10 mg/kg	CNCCC(Oc1ccc(C(F)(F)F)cc1)c1ccccc1 (stereo not shown) [Fluoxetine, fluoxetine]	72%	10 mg/kg	
	Cc1nc2n(c(=O)c1CCN1CCC(c3noc4cc(F)ccc34)CC1)CCCC2 [risperidone, reference compound]			will attenuate
